# PubChem BioAssay (NCI)
#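 Each compound was tested at five concentrations against cells in 96-well plates for 48 hours. GI50 marks 50% less growth. TGI: concentration producing complete growth inhibition.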
# How the values were obtained:
# Assay in all cases: growth of human tumour cells (NCI), 48 h
# [1] = system: HCT-15 colon
# [2] = system: CAKI-1 renal
# [3] = system: MCF7 breast
# [4] = system: SR leukemia
# [5] = system: A498 renal
# [6] = system: HOP-62 NSCLC
# [7] = system: OVCAR-3 ovarian
# [8] = system: HCT-116 colon
# [9] = system: MDA-MB-231 breast
# [10] = system: IGROV1 ovarian
Compound,GI50 [1] [µM],TGI [1] [µM],GI50 [2] [µM],TGI [2] [µM],GI50 [3] [µM],TGI [3] [µM],GI50 [4] [µM],TGI [4] [µM],GI50 [5] [µM],TGI [5] [µM],GI50 [6] [µM],TGI [6] [µM],GI50 [7] [µM],TGI [7] [µM],GI50 [8] [µM],TGI [8] [µM],GI50 [9] [µM],TGI [9] [µM],GI50 [10] [µM],TGI [10] [µM]
Cc1[nH]c2cc(F)ccc2c1-c1nc2c3cccnc3c3ncccc3c2[nH]1,0.359,18.8,0.289,1.19,0.319,1.65,0.0723,0.797,0.263,1.06,0.27,1.27,0.209,1.56,0.164,1.5,0.409,2.4,–,–
COc1ccc(-c2csc(NC(=O)CN3CCN(c4cc5c(cc4F)c(=O)c(C(=O)O)cn5C4CC4)CC3)n2)cc1,3.23,> 100,3.57,> 100,2.84,> 100,2.96,> 100,–,–,3.59,26.1,3.86,> 100,3.1,> 100,–,–,7,> 100
CCOc1ccc2c(c1)c(CC(=O)O)cn2C,–,> 100,–,> 100,–,> 100,–,> 100,–,–,–,> 100,–,> 100,–,> 100,–,> 100,–,–
CCCCCCCCCCCc1c(O)c(=O)c2c(oc3c(=O)c(CCCCCCCCCCC)c(O)c(=O)c3n2-c2ccc(N(C)C)cc2)c1=O,–,35.6,–,39.7,–,–,–,> 100,–,36.9,–,45.9,–,38.6,–,36.6,–,–,–,48.1
CC1(C)Cc2c(Br)c(Br)c(Br)c(OCC(O)CN3CCN(c4ccccn4)CC3)c2O1 (configuration not stated),10.9,26.5,–,–,10.3,22.4,4.38,24.7,14.8,29.5,13.2,27.7,9.54,23.4,5.8,23.5,12.3,28.2,10.7,26
O=C1CC/C(=C/COc2cc(=O)oc3ccccc23)O1,5.28,18.4,11.9,28.3,3.74,20.2,–,–,12.6,35.4,14.3,31.1,5.41,21.1,6.95,19.7,11.5,24.4,5.05,19.5
CC(=O)NC(C=O)C(O[C@H](C)C(=O)NC(C)C(=O)NC(CCC(N)=O)C(=O)OCc1ccccc1)C(O)C(O)COC(=O)CCNc1c2ccccc2nc2cccc([N+](=O)[O-])c12 (some centres not stated),–,30,–,93.1,–,–,–,2.69,–,> 100,–,10.2,–,4.01,–,2.69,–,–,–,> 100
COc1cc2oc3c(c(=O)c2c(O)c1/C=C/C(C)C)C(C=C(C)C)Oc1cc(O)ccc1-3 (configuration not stated),–,31.7,–,32.2,–,28.6,–,–,–,40.3,–,–,–,28.4,–,28.1,–,33.2,–,27.7
O=Cc1ccc(-c2ccc(-c3nc4ccccc4s3)cc2)s1,39.8,> 100,48.2,> 100,48.1,> 100,–,–,> 100,> 100,> 100,> 100,27.2,98.3,35.3,> 100,17.6,78.2,55.8,> 100
COc1cnc2c(c1)C(=O)c1c-2n(CCCN2CCC(O)CC2)c(=O)c2cc(Cl)ccc12,1.17,2.55,0.0729,15.1,0.0422,1.54,0.0888,13.2,0.704,21.8,0.0942,17.1,1.4,3.03,0.0987,2.18,1.51,3.12,–,–
CN(CCC(=O)/C(=C\c1ccccc1)c1ccc(Cl)cc1)Cc1ccccc1,2.42,7.05,3.54,12.5,2.06,16.5,0.521,5.81,3.45,12.6,2.87,7.46,2.03,5.04,2.35,5.73,–,–,–,–
COc1ccc(C(=O)C#Cc2c[nH]c(=O)[nH]c2=O)cc1,–,20.9,–,24.8,–,–,–,8.38,–,49.9,–,47.7,–,21.6,–,18.3,–,–,–,> 62.9
